What was measured:
Assay in all cases: relative viability (nuclei count vs DMSO), 5 days (fraction); higher = more cells survive
201T = system: 201T
How it was run: (§1)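 Relative viability divides the nuclei count in treated wells by that in vehicle wells. Lung cancer cell lines were seeded in 1536-well plates, dosed by pin tool the next day, and fixed and stained after 5 days in one step with final 0.05% Triton X-100, 1% formaldehyde and 1 ug/ml Hoechst. Dosing was a single drug or a fixed anchor-drug dose plus five library-drug doses (not always all listed) in √10 steps, and values are medians of duplicate plates imaged at 4×.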

A-427 = system: A-427
How it was run: as §1

BEN = system: BEN
How it was run: as §1

COR-L23 = system: COR-L23
How it was run: as §1

EKVX = system: EKVX
How it was run: as §1

HARA = system: HARA
How it was run: as §1

HCC-15 = system: HCC-15
How it was run: as §1

HCC-44 = system: HCC-44
How it was run: as §1

HCC-827 = system: HCC-827
How it was run: as §1

NCI-H1437 = system: NCI-H1437
How it was run: as §1

NCI-H1666 = system: NCI-H1666
How it was run: as §1

NCI-H1792 = system: NCI-H1792
How it was run: as §1

NCI-H1975 = system: NCI-H1975
How it was run: as §1

NCI-H23 = system: NCI-H23
How it was run: as §1

NCI-H358 = system: NCI-H358
How it was run: as §1

NCI-H441 = system: NCI-H441
How it was run: as §1

NCI-H596 = system: NCI-H596
How it was run: as §1

NCI-H650 = system: NCI-H650
How it was run: as §1

NCI-H838 = system: NCI-H838
How it was run: as §1

SK-MES-1 = system: SK-MES-1
How it was run: as §1

O=c1cc(N2CCOCC2)oc2c(-c3cccc4c3sc3ccccc34)cccc12 + Cc1nc(NC(=O)N2CCC[C@H]2C(N)=O)sc1-c1ccnc(C(C)(C)C(F)(F)F)c1 [Alpelisib] (partner 2 µM)
relative viability (201T; first compound 0.01 µM): 1 | relative viability (201T; first compound 0.03162 µM): 0.994 | relative viability (201T; first compound 0.1 µM): 1.07 | relative viability (201T; first compound 0.3162 µM): 0.979 | relative viability (201T; first compound 1 µM): 0.879 | relative viability (A-427; first compound 0.01 µM): 1.11 | relative viability (A-427; first compound 0.03162 µM): 1.12 | relative viability (A-427; first compound 0.1 µM): 1.03 | relative viability (A-427; first compound 0.3162 µM): 1.04 | relative viability (A-427; first compound 1 µM): 1.09 | relative viability (BEN; first compound 0.01 µM): 0.946 | relative viability (BEN; first compound 0.03162 µM): 1.16 | relative viability (BEN; first compound 0.1 µM): 0.951 | relative viability (BEN; first compound 0.3162 µM): 0.951 | relative viability (BEN; first compound 1 µM): 1.05 | relative viability (COR-L23; first compound 0.01 µM): 0.871 | relative viability (COR-L23; first compound 0.03162 µM): 0.718 | relative viability (COR-L23; first compound 0.1 µM): 0.922 | relative viability (COR-L23; first compound 0.3162 µM): 0.795 | relative viability (COR-L23; first compound 1 µM): 0.753 | relative viability (EKVX; first compound 0.01 µM): 0.88 | relative viability (EKVX; first compound 0.03162 µM): 0.868 | relative viability (EKVX; first compound 0.1 µM): 0.883 | relative viability (EKVX; first compound 0.3162 µM): 0.858 | relative viability (EKVX; first compound 1 µM): 0.824 | relative viability (HARA; first compound 0.01 µM): 0.854 | relative viability (HARA; first compound 0.03162 µM): 0.789 | relative viability (HARA; first compound 0.1 µM): 0.88 | relative viability (HARA; first compound 0.3162 µM): 0.809 | relative viability (HARA; first compound 1 µM): 0.845 | relative viability (HCC-15; first compound 0.01 µM): 0.87 | relative viability (HCC-15; first compound 0.03162 µM): 0.92 | relative viability (HCC-15; first compound 0.1 µM): 0.971 | relative viability (HCC-15; first compound 0.3162 µM): 0.859 | relative viability (HCC-15; first compound 1 µM): 0.828 | relative viability (HCC-44; first compound 0.01 µM): 0.841 | relative viability (HCC-44; first compound 0.03162 µM): 0.841 | relative viability (HCC-44; first compound 0.1 µM): 0.826 | relative viability (HCC-44; first compound 0.3162 µM): 0.708 | relative viability (HCC-44; first compound 1 µM): 0.697 | relative viability (HCC-827; first compound 0.01 µM): 0.918 | relative viability (HCC-827; first compound 0.03162 µM): 0.931 | relative viability (HCC-827; first compound 0.1 µM): 0.911 | relative viability (HCC-827; first compound 0.3162 µM): 0.947 | relative viability (HCC-827; first compound 1 µM): 0.914 | relative viability (NCI-H1437; first compound 0.01 µM): 0.931 | relative viability (NCI-H1437; first compound 0.03162 µM): 0.937 | relative viability (NCI-H1437; first compound 0.1 µM): 1.02 | relative viability (NCI-H1437; first compound 0.3162 µM): 0.993 | relative viability (NCI-H1437; first compound 1 µM): 0.95 | relative viability (NCI-H1666; first compound 0.01 µM): 0.936 | relative viability (NCI-H1666; first compound 0.03162 µM): 0.864 | relative viability (NCI-H1666; first compound 0.1 µM): 0.977 | relative viability (NCI-H1666; first compound 0.3162 µM): 0.963 | relative viability (NCI-H1666; first compound 1 µM): 0.832 | relative viability (NCI-H1792; first compound 0.01 µM): 0.677 | relative viability (NCI-H1792; first compound 0.03162 µM): 0.628 | relative viability (NCI-H1792; first compound 0.1 µM): 0.709 | relative viability (NCI-H1792; first compound 0.3162 µM): 0.672 | relative viability (NCI-H1792; first compound 1 µM): 0.674 | relative viability (NCI-H1975; first compound 0.01 µM): 0.619 | relative viability (NCI-H1975; first compound 0.03162 µM): 0.623 | relative viability (NCI-H1975; first compound 0.1 µM): 0.649 | relative viability (NCI-H1975; first compound 0.3162 µM): 0.621 | relative viability (NCI-H1975; first compound 1 µM): 0.608 | relative viability (NCI-H23; first compound 0.01 µM): 0.71 | relative viability (NCI-H23; first compound 0.03162 µM): 0.662 | relative viability (NCI-H23; first compound 0.3162 µM): 0.665 | relative viability (NCI-H23; first compound 1 µM): 0.745 | relative viability (NCI-H358; first compound 0.01 µM): 0.811 | relative viability (NCI-H358; first compound 0.03162 µM): 0.807 | relative viability (NCI-H358; first compound 0.1 µM): 0.841 | relative viability (NCI-H358; first compound 0.3162 µM): 0.847 | relative viability (NCI-H358; first compound 1 µM): 0.83 | relative viability (NCI-H441; first compound 0.01 µM): 0.832 | relative viability (NCI-H441; first compound 0.03162 µM): 0.658 | relative viability (NCI-H441; first compound 0.1 µM): 0.792 | relative viability (NCI-H441; first compound 0.3162 µM): 0.842 | relative viability (NCI-H441; first compound 1 µM): 0.7 | relative viability (NCI-H596; first compound 0.01 µM): 0.469 | relative viability (NCI-H596; first compound 0.03162 µM): 0.506 | relative viability (NCI-H596; first compound 0.1 µM): 0.451 | relative viability (NCI-H596; first compound 0.3162 µM): 0.474 | relative viability (NCI-H596; first compound 1 µM): 0.522 | relative viability (NCI-H650; first compound 0.01 µM): 1.06 | relative viability (NCI-H650; first compound 0.03162 µM): 1.15 | relative viability (NCI-H650; first compound 0.3162 µM): 1.21 | relative viability (NCI-H650; first compound 1 µM): 1.09 | relative viability (NCI-H838; first compound 0.01 µM): 0.961 | relative viability (NCI-H838; first compound 0.03162 µM): 0.99 | relative viability (NCI-H838; first compound 0.1 µM): 1.03 | relative viability (NCI-H838; first compound 0.3162 µM): 1.02 | relative viability (NCI-H838; first compound 1 µM): 0.975 | relative viability (SK-MES-1; first compound 0.01 µM): 0.842 | relative viability (SK-MES-1; first compound 0.03162 µM): 0.839 | relative viability (SK-MES-1; first compound 0.1 µM): 0.867 | relative viability (SK-MES-1; first compound 0.3162 µM): 0.935 | relative viability (SK-MES-1; first compound 1 µM): 0.937

Reference: the supplement of paper PMC10307832
